Values after ≈ are worked out from the molar mass of the structure shown.
Assays:
[1] = Decomposition temperature Td by means of TGA; assay type: physicochemical
[2] = physchem; conditions: organic solvent or mixture
[3] = Glass transition temperature Tg and morphology M by means of DSC; assay type: physicochemical

Row | Structure (SMILES) | decomposition temperature Td [1] | solubility ([2]; solubility L in chlorobenzene) | solubility ([2]; solubility in Ethyl acetate) | solubility ([2]; solubility in Tetrahydrofuran) | solubility ([2]; solubility in Toluene) | glass transition temperature Tg [3] | solubility ([2]; solubility in Anisole)
1 | COc1ccc(N(c2ccc(OC)cc2)c2ccc(N(c3ccccc3)c3ccc(-c4ccc(N(c5ccccc5)c5ccc(N(c6ccc(OC)cc6)c6ccc(OC)cc6)cc5)cc4)cc3)cc2)cc1 [ID320] | 450 °C | 760 to 1000 mg/mL (≈ 806 to 1060 mM) | 140 mg/mL (≈ 148 mM) | > 280 mg/mL | 280 mg/mL (≈ 297 mM) | 96 °C | 
2 | COc1ccc(N(c2ccc(OC)cc2)c2ccc(-c3ccc(N(c4ccccc4)c4ccc(-c5ccc(N(c6ccccc6)c6ccc(-c7ccc(N(c8ccc(OC)cc8)c8ccc(OC)cc8)cc7)cc6)cc5)cc4)cc3)cc2)cc1 [ID321] | 460 °C | 900 to 1150 mg/mL (≈ 822 to 1050 mM) | 15 mg/mL (≈ 13.7 mM) | > 240 mg/mL | > 100 mg/mL | 143 °C | 
3 | COc1ccc(N(c2ccc(N(c3ccccc3)c3ccc(N(c4ccccc4)c4ccc(N(c5ccc(OC)cc5)c5ccc6c(c5)C(C)(C)c5ccccc5-6)cc4)cc3)cc2)c2ccc3c(c2)C(C)(C)c2ccccc2-3)cc1 [ID366] | 460 °C | > 1100 mg/mL | > 560 mg/mL | > 440 mg/mL | > 380 mg/mL | 127 °C | 
4 | COc1ccc(N(c2ccc(OC)cc2)c2ccc(-c3ccc(N(c4ccc(OC)cc4)c4ccc(-c5ccc(N(c6ccc(OC)cc6)c6ccc(-c7ccc(N(c8ccc(OC)cc8)c8ccc(OC)cc8)cc7)cc6)cc5)cc4)cc3)cc2)cc1 [ID367] | 450 °C | 700 to 1000 mg/mL (≈ 606 to 865 mM) | 70 to 80 mg/mL (≈ 60.6 to 69.2 mM) | 370 to 550 mg/mL (≈ 320 to 476 mM) | 320 to 500 mg/mL (≈ 277 to 433 mM) | 136 °C | 450 to 700 mg/mL (≈ 389 to 606 mM)

The next lines start with the values.

Row | decomposition temperature Td [1] | solubility ([2]; solubility L in chlorobenzene) | solubility ([2]; solubility in Ethyl acetate) | solubility ([2]; solubility in Tetrahydrofuran) | solubility ([2]; solubility in Toluene) | glass transition temperature Tg [3] | solubility ([2]; solubility in Anisole) | Structure (SMILES)
5 | 460 °C | 500 to 1000 mg/mL (≈ 414 to 828 mM) | > 380 mg/mL | 180 to 360 mg/mL (≈ 149 to 298 mM) | > 240 mg/mL | 154 °C |  | COc1ccc(N(c2ccc(OC)cc2)c2ccc(-c3ccc(N(c4ccc(-c5ccc(N(c6ccc(-c7ccc(N(c8ccc(OC)cc8)c8ccc(OC)cc8)cc7)cc6)c6ccc(C(C)(C)C)cc6)cc5)cc4)c4ccc(C(C)(C)C)cc4)cc3)cc2)cc1 [ID368]
6 | 460 °C | 300 to 450 mg/mL (≈ 226 to 339 mM) | 140 to 280 mg/mL (≈ 105 to 211 mM) | 100 to 150 mg/mL (≈ 75.3 to 113 mM) | 140 to 170 mg/mL (≈ 105 to 128 mM) | 154 °C |  | COc1ccc(N(c2ccc(OC)cc2)c2ccc(-c3ccc(N(c4ccc(-c5ccc(N(c6ccc(-c7ccc(N(c8ccc(OC)cc8)c8ccc(OC)cc8)cc7)cc6)c6ccc7c(c6)C(C)(C)c6ccccc6-7)cc5)cc4)c4ccc5c(c4)C(C)(C)c4ccccc4-5)cc3)cc2)cc1 [ID369]
7 | 430 °C | 1250 to 2500 mg/mL (≈ 1160 to 2320 mM) | 50 to 65 mg/mL (≈ 46.3 to 60.2 mM) | 1000 to 2000 mg/mL (≈ 927 to 1850 mM) | > 460 mg/mL | 120 °C |  | COc1ccc(N(c2ccc(OC)cc2)c2ccc(-c3ccc(N(c4ccc(OC)cc4)c4ccc(N(c5ccc(OC)cc5)c5ccc(-c6ccc(N(c7ccc(OC)cc7)c7ccc(OC)cc7)cc6)cc5)cc4)cc3)cc2)cc1 [ID446]
8 | 430 °C | 900 to 1800 mg/mL (≈ 753 to 1510 mM) | > 660 mg/mL | 750 to 1500 mg/mL (≈ 627 to 1250 mM) | > 520 mg/mL | 137 °C |  | COc1ccc(N(c2ccc(OC)cc2)c2ccc(-c3ccc(N(c4ccc(OC)cc4)c4ccc5c(c4)C(C)(C)c4cc(N(c6ccc(OC)cc6)c6ccc(-c7ccc(N(c8ccc(OC)cc8)c8ccc(OC)cc8)cc7)cc6)ccc4-5)cc3)cc2)cc1 [ID447]
9 | 420 °C | 900 to 1800 mg/mL (≈ 674 to 1350 mM) |  |  |  | 105 °C |  | CCCCCCC1(CCCCCC)c2cc(N(c3ccc(OC)cc3)c3ccc(-c4ccc(N(c5ccc(OC)cc5)c5ccc(OC)cc5)cc4)cc3)ccc2-c2ccc(N(c3ccc(OC)cc3)c3ccc(-c4ccc(N(c5ccc(OC)cc5)c5ccc(OC)cc5)cc4)cc3)cc21 [ID450]
